Reference: US12414267B2, “Fluorinated aromatics and methods of using same” (3M INNOVATIVE PROPERTIES COMPANY, priority 2019, dated 2025)

Experiment: Log Kow (octanol/water partition coefficient) by HPLC, OECD Test Method 117
Assay type: physicochemical
Conditions: OECD 117
Protocol: Values of Log Kow (octanol/water partition coefficients) were determined by HPLC using the method described in Organization for Economic Cooperation and Development (OECD) Test Method 117, “Partition Coefficient (n-octanol/water), HPLC Method.”

| SMILES | Log Kow |
| --- | --- |
| Fc1c(F)c(F)c(OC(=C(C(F)(F)F)C(F)(F)F)C(F)(F)C(F)(F)F)c(F)c1F [Example 1, 1,2,3,4,5-Pentafluoro-6-[3,3,3-trifluoro-1-(1,1,2,2,2-pentafluoroethyl)-2-(trifluoromethyl)prop-1-enoxy]benzene] | 6.1 |
| F/C(Oc1c(F)c(F)c(F)c(F)c1F)=C(/F)C(F)(F)F [Example 2, (E)-1,2,3,4,5-Pentafluoro-6-((perfluoroprop-1-en-1-yl)oxy)benzene] | 4.7 |
| F/C(=C(/C(F)(F)F)C(F)(Oc1c(F)c(F)c(F)c(F)c1F)C(F)(F)C(F)(F)F)C(F)(C(F)(F)F)C(F)(F)F (stereo not drawn) [Example 3, (E)-1,2,3,4,5-Pentafluoro-6-((1,1,1,2,2,3,5,6,7,7,7-undecafluoro-4,6-bis(trifluoromethyl)hept-4-en-3-yl)oxy)benzene] | >6.4 |
| F/C(=C(/C(F)(F)F)C(F)(Oc1ccccc1)C(F)(F)C(F)(F)F)C(F)(C(F)(F)F)C(F)(F)F (stereo not drawn) [Example 4, (E)-((1,1,1,2,2,3,5,6,7,7,7-Undecafluoro-4,6-bis(trifluoromethyl)hept-4-en-3-yl)oxy)benzene+isomers] | >6.4 |
| FC(F)(F)C(=C(Oc1ccccc1)C(F)(F)C(F)(F)F)C(F)(F)F [Example 5, ((1,1,1,4,4,5,5,5-Octafluoro-2-(trifluoromethyl)pent-2-en-3-yl)oxy)benzene] | 5.5 |
| FC(F)(F)C(=C(Oc1cccc(C(F)(F)F)c1)C(F)(F)C(F)(F)F)C(F)(F)F [Example 7, 1-((1,1,1,4,4,5,5,5-Octafluoro-2-(trifluoromethyl)pent-2-en-3-yl)oxy)-3-(trifluoromethyl)benzene] | 6.1 |
